From ChEMBL document CHEMBL4316583, “In Vitro and in Vivo Antitumor Effects of Plant-Derived Miliusanes and Their Induction of Cellular Senescence” (J Med Chem, 2019) come the findings set out here.

The test system of assay [1] is HCT-116. Put plainly: Cytotoxicity against human HCT116 cells assessed as cell growth inhibition after 48 hrs by sulforhodamine B assay. To be noted: HCT-116, 48 h. Format: functional, cell-based.
A further assay relates to A-375. Put plainly: Cytotoxicity against human A375 cells assessed as cell growth inhibition after 48 hrs by sulforhodamine B assay. In kind it is functional, cell-based. To be noted: A-375, 48 h. For orientation: The SRB assay estimates cell density from bound dye.
A further assay deals with A549. Put plainly: Cytotoxicity against human A549 cells assessed as cell growth inhibition after 48 hrs by sulforhodamine B assay. Format: functional, cell-based. The conditions noted are these: A549, 48 h.
Assay [2] relates to HCT-116. Put plainly: Cytotoxicity against human HCT116 cells assessed as cell growth inhibition after 24 hrs by sulforhodamine B assay. In kind it is functional, cell-based. To be noted: HCT-116, 24 h.
The test system of assay [3] is Panel NCI-60 (60 carcinoma cell lines). Put plainly: Growth inhibition human NCI60 cells after 48 hrs by sulforhodamine B assay. Format: functional.

A word on the IC50: it is the concentration that gives 50% inhibition. `COC(=O)[C@H](O)[C@@]1(C/C=C(\C)CCC=C(C)C)C[C@H](OC(C)=O)C=CC1=O`: the half-maximal inhibitory concentration (IC50) in the assay with HCT-116 [1] is 4.1 µM; in the assay with A-375, 3.6 µM; with A549 it was 7.15 µM.

On to `CC(=O)O[C@@H]1CC[C@@H](OC(C)=O)[C@@]2(CC(=O)O[C@@H]2/C=C(\C)CCC=C(C)C)C1`, for which the IC50 with HCT-116 [1] and with HCT-116 [2] was > 30 µM throughout.

As for `CC(=O)O[C@H]1C[C@]2(CC(=O)O[C@@H]2/C=C(\C)CCC=C(C)C)C(OC(=O)c2ccccc2)=C[C@H]1N(C(=O)c1ccccc1)c1ccccc1`, the IC50 in the assay with HCT-116 [1] and in the assay on HCT-116 [2] was > 30 µM in each case.

Regarding `CO[C@H]1CC(=O)[C@@]2(CC(=O)O[C@@H]2/C=C(\C)CCC=C(C)C)C[C@@H]1O`, the IC50 in the assay with HCT-116 [1] is 17.2 µM; with A-375, 9.86 µM; in the assay with A549 it was 18.4 µM.

Turning to `CC(=O)O[C@@H]1C=C[C@@H](O)[C@@]2(CC(=O)O[C@@H]2/C=C(\C)CCC=C(C)C)C1`, the results for the IC50 in the assay with HCT-116 [1], in the assay on A-375 and in the assay on A549 were 13.3 µM, 7.24 µM and 18.3 µM, respectively.

The term GI50 denotes the concentration that inhibits growth by half. Low readings indicate more potent growth inhibition, high ones less potent growth inhibition. Turning to `CO[C@@H]1CC(=O)[C@@]2(CC(=O)O[C@@H]2/C=C(\C)CCC=C(C)C)C[C@@H]1O`, the GI50 in assay [3] fell in the range of 0.03 to 4.79 µM. Besides, the IC50 in the assay with HCT-116 [1] stood at 3.5 µM; with A-375, 3.7 µM; with A549 it was 4.36 µM.

As for `CC(=O)O[C@@H]1C=CC(=O)[C@@]2(CC(=O)O[C@@H]2/C=C(\C)C/C=C/C(C)(C)O)C1`, the IC50 with HCT-116 [1] came to 4.2 µM; in the assay with A-375, 4.25 µM; in the assay with A549 it was 20.8 µM.

As to `CC(=O)O[C@@H]1CCC(=O)[C@@]2(CC(=O)O[C@@H]2/C=C(\C)CCC=C(C)C)C1`, the half-inhibitory concentration (IC50) with HCT-116 [1] and in the assay with HCT-116 [2] was > 30 µM each time.

`CC(=O)O[C@H]1C[C@]2(CC(=O)O[C@@H]2/C=C(\C)CCC=C(C)C)C(=O)C[C@H]1N(C(=O)c1ccccc1)c1ccccc1`: the IC50 in the assay with HCT-116 [1] was 10.4 µM; with HCT-116 [2], 14 µM.

With `CC(=O)O[C@@H]1CC[C@@H](O)[C@@]2(CC(=O)O[C@@H]2/C=C(\C)CCC=C(C)C)C1`, the half-maximal inhibitory concentration (IC50) in the assay on HCT-116 [1] and in the assay on HCT-116 [2] was > 30 µM each time.

`CC(=O)O[C@@H]1C=CC(=O)[C@@]2(CC(=O)O[C@@H]2/C=C(\C)CCCC(C)C=O)C1` (stereo partly drawn): the IC50 came out at 5.49 µM in the assay on HCT-116 [1] and 7.18 µM in the assay with HCT-116 [2].

Regarding `CC(=O)O[C@@H]1C=CC(=O)[C@@]2(CC(=O)O[C@@H]2/C=C(\C)CCC=C(CO)CO)C1`, the IC50 turned out to be 13.7 µM with HCT-116 [1] and 12.9 µM in the assay on HCT-116 [2].

`CC(=O)O[C@@H]1C=CC(=O)[C@@](C/C=C(\C)CCC=C(C)C)(CC(=O)O)C1`: the 50% inhibitory concentration (IC50) in the assay on HCT-116 [1], with A-375 and in the assay with A549 was > 57.5 µM in each case.

In the case of `CC(C)=CCC/C(C)=C/[C@H]1OC(=O)C[C@]12C[C@H](O)C=C[C@H]2O`, the concentration for half-maximal inhibition (IC50) in the assay with HCT-116 [1], in the assay with A-375 and in the assay on A549 was > 65 µM in each case.

For the compound `CC(=O)O[C@@H]1C=CC(=O)[C@@]2(CC(=O)O[C@@H]2/C=C(\C)CC/C=C(\C)CO)C1`, the IC50 with HCT-116 [1] amounted to 5.85 µM; in the assay with HCT-116 [2] it was 6.97 µM.

On to `CC(=O)O[C@@H]1CCC(=O)[C@@]2(CC(=O)O[C@@H]2CC(C)CCCC(C)C)C1` (stereo partly drawn), for which the IC50 with HCT-116 [1] and in the assay with HCT-116 [2] was > 30 µM throughout.

Consider `COC(=O)C[C@@]1(C/C=C(\C)CCC=C(C)C)C[C@H](OC(C)=O)C=CC1=O`, for which the IC50 was determined as 13 µM in the assay with HCT-116 [1], 10.4 µM in the assay on A-375 and 24.5 µM with A549.

On to `COC(=O)C[C@@]1(C/C=C(\C)CCC=C(C)C)C[C@H](OC(C)=O)C=C[C@H]1O`, for which the values for the IC50 in the assay on HCT-116 [1], with A-375 and with A549 were 18.3 µM, 11.6 µM and 18 µM, respectively.

Turning to `CC(=O)O[C@@H]1C=CC(=O)[C@@]2(CC(=O)O[C@@H]2CC(C)CCCC(C)C)C1` (stereo partly drawn), the IC50 in the assay with HCT-116 [1] and in the assay on HCT-116 [2] was 1.95 µM each time.
